What all share (type): cell-based
The subject of one assay is HEPG2 Cells. The experiment in a line: NAD Elevation Assay (NAD Cellular Assay), HEPG2 cells. How it is done: (§1) Compounds were tested in an NAD Cellular Assay according to the following protocol. Jurkat cells (50,000 per in 100 microliters of RPMI media) were added to wells of a 96 well, conical bottomed plate. The cells were allowed to recover for 3 h in culture. A 16 microliter aliquot of a 100 mM compound stock solution was diluted with 784 microliters of medium and 10% FBS to give 800 microliters of a 2 mM compound treatment solution. The compound treatment solution was added to the cells for a final concentration of 1 mM compound (n=6 wells for each compound.) As a parallel control, nicotinamide mononucleotide (NMN) was added to cells at a final concentration of 2 mM (n=6). The plates were incubated for 24 hours, then spun at 1000 rpm for 10 min. The medium was removed, then the cells were washed with fresh PBS and spun again. The PBS medium was removed, then the cells were washed one more time with PBS and spun. The liquid was removed from each well via pipette, avoiding touching the cell pellet. The cells were lysed with 75 microliters of 0.5% DTAB. 25 microliters of the lysate was added to each of two flat bottomed plates. One plate was used for a BCA protein assay (clear), and the other plate was used for the NAD assay (clear bottom, white walled). The NAD concentration in each well was determined using a commercially available assay according to the kit instructions (e.g. Promega NAD/NADH-Glo™ Assay.) The Pierce BCA protein assay was run according to the kit instructions (e.g. ThermoScientific Catalog number 23225). NAD levels were normalized to total protein and reported as a multiple of the NAD level in untreated cells.
(§2) Assays with other cell types were run similarly, using the appropriate compound and NMN dilutions. Cell counts were adjusted as necessary to provide a signal within the reading range of the protein and NAD assay kits.

A further assay relates to NDF Cells. As to the kind of experiment: NAD Elevation Assay (NAD Cellular Assay), NDF cells. The conditions noted are these: 0.25 mM compound. How it is done: as §1, §2
The test system of the next assay is AML12 Cells. As to the kind of experiment: NAD Elevation Assay (NAD Cellular Assay), AML12 cells. As to conditions: at 0.4-2 mM compound. How it is done:
as §1, with “The PBS medium was removed, then the cells were washed one more time with PBS and spun. The liquid was removed from each well via pipette, avoiding touching the cell pellet. The cells were lysed with 75 microliters of 0.5% DTAB. 25 microliters of the lysate was added to each of two flat bottomed plates. One plate was used for a BCA protein assay (clear), and the other plate was used for the NAD assay (clear bottom, white walled).” left out, “NAD levels were normalized to total protein and reported as a multiple of the NAD level in untreated cells.” left out
as §2

The subject of another assay is Jurkat cells. As to the kind of experiment: NAD Elevation Assay (NAD Cellular Assay), Jurkat cells. The conditions noted are these: 1 mM compound, 24 hours. How it is done: as §1, with “25 microliters of the lysate was added to each of two flat bottomed plates. One plate was used for a BCA protein assay (clear), and the other plate was used for the NAD assay (clear bottom, white walled).” left out, “NAD levels were normalized to total protein and reported as a multiple of the NAD level in untreated cells.” left out

Experimental findings from patent US20250066413A1, “COMPOSITIONS FOR TREATMENT OF INFLAMMATION” (Metro International Biotech, LLC, priority 2022, published 2025) are described below.

For `Cn1cnc2c1c(=O)n(CCOC(=O)c1ccc[n+]([C@@H]3O[C@H](COP(=O)([O-])O)[C@@H](O)[C@H]3O)c1)c(=O)n2C` [Compound 4, ((2R,3S,4R,5R)-5-(3-((2-(3,7-dimethyl-2,6-dioxo-2,3,6,7-tetrahydro-1H-purin-1-yl)ethoxy)carbonyl)pyridin-1-ium-1-yl)-3,4-dihydroxytetrahydrofuran-2-yl)methyl hydrogen phosphate], the “NAD Elevation Assay (NAD level normalized to total protein, multiple of the NAD level in untreated cells)” value in the assay on HEPG2 Cells (0.1 mM compound) is on record as 2.1x @0.1.
Regarding `CCCn1cnc2c1c(=O)n(CCOC(=O)c1ccc[n+]([C@@H]3O[C@H](COP(=O)([O-])O)[C@@H](O)[C@H]3O)c1)c(=O)n2C` [Compound 7P, ((2R,3S,4R,5R)-3,4-dihydroxy-5-(3-((2-(3-methyl-2,6-dioxo-7-propyl-2,3,6,7-tetrahydro-1H-purin-1-yl)ethoxy)carbonyl)pyridin-1-ium-1-yl)tetrahydrofuran-2-yl)methyl hydrogen phosphate], the “NAD Elevation Assay (NAD level normalized to total protein, multiple of the NAD level in untreated cells)” value in the assay on NDF Cells came to 1.9x @0.25.
As for `Cn1cnc2c1c(=O)n(CCCOC(=O)c1ccc[n+]([C@@H]3O[C@H](COP(=O)([O-])O)[C@@H](O)[C@H]3O)c1)c(=O)n2C` [Compound 5P, ((2R,3S,4R,5R)-5-(3-((3-(3,7-dimethyl-2,6-dioxo-2,3,6,7-tetrahydro-1H-purin-1-yl)propoxy)carbonyl)pyridin-1-ium-1-yl)-3,4-dihydroxytetrahydrofuran-2-yl)methyl hydrogen phosphate], the “NAD Elevation Assay (NAD level normalized to total protein, multiple of the NAD level in untreated cells)” value in the assay with NDF Cells is reported as 2.2x @0.25.
Take `Cn1cnc2c1c(=O)n(CC(=O)OCCCOC(=O)c1ccc[n+]([C@@H]3O[C@H](CO)[C@@H](O)[C@H]3O)c1)c(=O)n2C.O=S(=O)([O-])C(F)(F)F` [Compound 1, 1-((2R,3R,4S,5R)-3,4-dihydroxy-5-(hydroxymethyl)tetrahydrofuran-2-yl)-3-((3-(2-(3,7-dimethyl-2,6-dioxo-2,3,6,7-tetrahydro-1H-purin-1-yl)acetoxy)propoxy)carbonyl)pyridin-1-ium trifluoromethanesulfonate]: the “NAD Elevation Assay” value with AML12 Cells was “Active at 0.4-2”.
As for `CCn1c(=O)c2c(ncn2CCOC(=O)c2ccc[n+]([C@@H]3O[C@H](COP(=O)([O-])O)[C@@H](O)[C@H]3O)c2)n(CC)c1=O` [Compound 11P, ((2R,3S,4R,5R)-5-(3-((2-(1,3-diethyl-2,6-dioxo-1,2,3,6-tetrahydro-7H-purin-7-yl)ethoxy)carbonyl)pyridin-1-ium-1-yl)-3,4-dihydroxytetrahydrofuran-2-yl)methyl hydrogen phosphate], in the assay on HEPG2 Cells (2 mM compound), the “NAD Elevation Assay (NAD level normalized to total protein, multiple of the NAD level in untreated cells)” value turned out to be 1.3x @2.
`Cn1c(=O)c2c(ncn2CCOC(=O)c2ccc[n+]([C@@H]3O[C@H](CO)[C@@H](O)[C@H]3O)c2)n(C)c1=O.O=S(=O)([O-])C(F)(F)F` [Compound 2, 1-((2R,3R,4S,5R)-3,4-dihydroxy-5-(hydroxymethyl)tetrahydrofuran-2-yl)-3-((2-(1,3-dimethyl-2,6-dioxo-1,2,3,6-tetrahydro-7H-purin-7-yl)ethoxy)carbonyl)pyridin-1-ium trifluoromethanesulfonate]: the “NAD Elevation Assay (NAD level normalized to total protein, multiple of the NAD level in untreated cells)” value with Jurkat cells was found to be 2.9x @1.
Take `Cn1cnc2c1c(=O)n(CCNC(=O)c1ccc[n+]([C@@H]3O[C@H](COP(=O)([O-])O)[C@@H](O)[C@H]3O)c1)c(=O)n2C` [Compound 9P, ((2R,3S,4R,5R)-5-(3-((2-(3,7-dimethyl-2,6-dioxo-2,3,6,7-tetrahydro-1H-purin-1-yl)ethyl)carbamoyl)pyridin-1-ium-1-yl)-3,4-dihydroxytetrahydrofuran-2-yl)methyl hydrogen phosphate]: in the assay on HEPG2 Cells (0.25 mM compound), the “NAD Elevation Assay (NAD level normalized to total protein, multiple of the NAD level in untreated cells)” value turned out to be 1.9x @0.25.
On to `Cn1cnc2c1c(=O)n(CCOC(=O)c1ccc[n+]([C@@H]3O[C@H](CO)[C@@H](O)[C@H]3O)c1)c(=O)n2C.O=S(=O)([O-])C(F)(F)F` [Compound 3, 1-((2R,3R,4S,5R)-3,4-dihydroxy-5-(hydroxymethyl)tetrahydrofuran-2-yl)-3-((2-(3,7-dimethyl-2,6-dioxo-2,3,6,7-tetrahydro-1H-purin-1-yl)ethoxy)carbonyl)pyridin-1-ium trifluoromethanesulfonate], for which the “NAD Elevation Assay” value in the assay with AML12 Cells is given as “Active at 0.4-2”.
For the molecule `Cn1c(=O)c2c(ncn2CC(=O)OCCCOC(=O)c2ccc[n+]([C@@H]3O[C@H](COP(=O)([O-])O)[C@@H](O)[C@H]3O)c2)n(C)c1=O` [Compound 6P, ((2R,3S,4R,5R)-5-(3-((3-(2-(1,3-dimethyl-2,6-dioxo-1,2,3,6-tetrahydro-7H-purin-7-yl)acetoxy)propoxy)carbonyl)pyridin-1-ium-1-yl)-3,4-dihydroxytetrahydrofuran-2-yl)methyl hydrogen phosphate], in the assay with NDF Cells, the “NAD Elevation Assay (NAD level normalized to total protein, multiple of the NAD level in untreated cells)” value came out at 2.0x @0.25.
Take `Cn1c(=O)c2c(ncn2CCOC(=O)c2ccc[n+]([C@@H]3O[C@H](COP(=O)([O-])O)[C@@H](O)[C@H]3O)c2)n(C)c1=O` [Compound 2P, ((2R,3S,4R,5R)-5-(3-((2-(1,3-dimethyl-2,6-dioxo-1,2,3,6-tetrahydro-7H-purin-7-yl)ethoxy)carbonyl)pyridin-1-ium-1-yl)-3,4-dihydroxytetrahydrofuran-2-yl)methyl hydrogen phosphate]: the “NAD Elevation Assay (NAD level normalized to total protein, multiple of the NAD level in untreated cells)” value with HEPG2 Cells (2 mM compound) is reported as 1.6x @2.
